Results from patent publication US10231956B2, “3-(1H-pyrrolo[3,2-C]pyridin-2-YL)-1 H-pyrazolo[4,3-B]pyridines and therapeutic uses thereof” (Samumed, LLC, priority 2015, dated 2019).

Experiments:
[1] = system: primary human fibroblasts derived from IPF patients (LL29 cells); assay: Inhibition of fibrotic process: αSMA staining in TGF-β1 treated LL29 fibroblasts; assay type: cell-based; conditions: Fibroblast; for EC50: 96 h, TGF-β1 20 ng/mL, 4 days, % cells positive for αSMA; for inhibition at 10 µM: given for EC50 >10 μM, TGF-β1, αSMA, read-out: percent inhibition at 10 μM
Excerpt: Representative compounds were screened using primary human fibroblasts (derived from IPF patients) treated with TGF-β1 to determine their ability to inhibit the fibrotic process.
Human Fibroblast Cell Culture: Primary human fibroblasts derived from IPF patients (LL29 cells) [^1Xiaoqiu Liu, et. al., “Fibrotic Lung Fibroblasts Show Blunted Inhibition by cAMP Due to Deficient cAMP Response Element-Binding Protein Phosphorylation”, Journal of Pharmacology and Experimental Therapeutics (2005), 315(2), 678-687; ^2Watts, K. L., et. al., “RhoA signaling modulates cyclin D1 expression in human lung fibroblasts; implications for idiopathic pulmonary fibrosis”, Respiratory Research (2006), 7(1), 88] were obtained from American Type Culture Collection (ATCC) and expanded in F12 medium supplemented with 15% Fetal Bovine Serum and Penicillin/Streptomycin.
Compound Screening: Each compound was dissolved in DMSO as a 10 mM stock and used to prepare compound source plates. Serial dilution (1:2, 11-point dose-response curves from […]) and compound transfer was performed using the ECHO 550 (Labcyte, Sunnyvale, Calif.) into 384-well clear bottom assay plates (Greiner Bio-One) with appropriate DMSO backfill for a final DMSO concentration of 0.1%. LL29 cells are plated at 1,500 cells/well in 80 μL/well F12 medium supplemented with 1% Fetal Bovine Serum. One hour after addition of the cells, TGF-β1 (Peprotech; 20 ng/mL) was added to the plates to induce fibrosis (ref. 1 and 2 above). Wells treated with TGF-β1 and containing DMSO were used as controls. Cells were incubated at 37° C. and 5% CO2 for 4 days. Following incubation for 4 days, SYTOX green nucleic acid stain (Life Technologies [Thermo Fisher Scientific]) was added to the wells at a final concentration of 1 μM and incubated at room temperature for 30 min. Cells were then fixed using 4% formaldehyde (Electron Microscopy Sciences), washed 3 times with PBS followed by blocking and permeabilization using 3% Bovine Serum Albumin (BSA; Sigma) and 0.3% Triton X-100 (Sigma) in PBS. Cells were then stained with antibody specific to α-smooth muscle actin (αSMA; Abcam) (ref. 1 and 2 above) in 3% Bovine Serum Albumin (BSA; Sigma) and 0.3% Triton X-100 (Sigma) in PBS, and incubated overnight at 4° C. Cells were then washed 3 times with PBS, followed by incubation with Alexa Flor-647 conjugated secondary antibody (Life Technologies [Thermo Fisher Scientific]) and DAPI at room temperature for 1 hour. Cells were then washed 3 times with PBS and plates were sealed for imaging. αSMA staining was imaged by excitation at 630 nm and emission at 665 nm and quantified using the Compartmental Analysis program on the CellInsight CX5 (Thermo Scientific). Dead or apoptotic cells were excluded from analysis based on positive SYTOX green staining. % of total cells positive for αSMA were counted in each well and normalized to the average of 11 wells treated with TGF-β1 on the same plate using Dotmatics' Studies Software. The normalized averages (fold change over untreated) of 3 replicate wells for each compound concentration were used to create dose-responses curves and EC50 values were calculated using non-linear regression curve fit in the Dotmatics' Studies Software. For EC50 of >10 μM, the percent inhibition at 10 μM is provided.

IL-6 = IL-6 inhibition in LPS-stimulated THP-1 cells (HTRF); assay type: cell-based; conditions: Homo sapiens; for EC50: LPS 500 ng/mL, 22 hours, IL6 HTRF; for inhibition at 10 µM: given for EC50 >10 μM, LPS, IL6, 10 μM, read-out: percent inhibition at 10 μM
Procedure: Human Monocyte Cell Culture: Human monocyte cell line (THP-1 cells; Catalog # TIB-202, ATCC, Manassas, Va.) were cultured in Roswell Park Memorial Institute (RPMI) 1640 Medium (Catalog #21870-100, Buffalo, N.Y.) with 1% L-glutamine, 1% HEPES, 1% Sodium Pyruvate, 2% Sodium Bicarbonate supplemented with 100 units/mL penicillin, 50 μg/mL streptomycin, 2-mercaptoethanol (0.05 mM) [basal medium] and 10% fetal bovine serum (Catalog #16140089, Life Technologies, Carlsbad, Calif.) at 37° C. and 5% CO2.
Compound Screening: THP-1 cells were cultured in basal media with 1% FBS for 24 hours before the start of the assay. Each compound was dissolved in DMSO as a 10 mM stock and used to prepare compound source plates. Serial dilution (1:3, 10-point dose-response curves starting from 1 μM) and compound transfer was performed using the ECHO 550 (Labcyte, Sunnyvale, Calif.) into 384-well white low volume assay plates (Greiner Bio-One) with appropriate DMSO backfill for a final DMSO concentration of 0.1%. THP-1 cells were plated at 5000 cells/well in the 384-well plates and incubated at 37° C. for 2 h. 500 ng/mL of LPS was added after 2 hours and cells were incubated for another 22 hours at 37° C. Plates were spun in a centrifuge for 1 minute at 10,000 rpm and a mixture of anti-IL6 XL665, and anti-IL6 Cryptate diluted in reconstitution buffer (Cisbio Inc.) was added to each well. Following incubation for 3 hrs at room temperature, Homogeneous Time-Resolved Fluorescence (HTRF) was measured using the Envision (Perkin Elmer) at 665 nm and […]. The ratio of fluorescence at 665 nm to 620 nm was used as a readout for IL6 quantification. All samples were processed in duplicate. Readings were normalized to DMSO treated cells and normalized activities were utilized for EC50 calculations using the dose-response log (inhibitor) vs. response-variable slope (four parameters) nonlinear regression feature available in GraphPad Prism 5.0 (or Dotmatics). For EC50 of >10 μM, the percent inhibition at 10 μM is provided.

Compound | EC50 (IL-6) [nM] | EC50 [1] [nM] | inhibition at 10 µM [1] [%] | inhibition at 10 µM (IL-6) [%]
O=C(Nc1cncc(-c2ccc3[nH]nc(-c4cc5c(-c6cccc(F)c6)nccc5[nH]4)c3n2)c1)C1CCCCC1 [Compound 23, N-(5-(3-(4-(3-Fluorophenyl)-1H-pyrrolo[3,2-c]pyridin-2-yl)-1H-pyrazolo [4,3-b]pyridin-5-yl)pyridin-3-yl)cyclohexanecarboxamide] | > 10000 | 463 |  | 10.6
O=C(Nc1cncc(-c2ccc3[nH]nc(-c4cc5c(-c6ccc(F)cc6)nccc5[nH]4)c3n2)c1)c1ccccc1 [Compound 39, N-(5-(3-(4-(4-Fluorophenyl)-1H-pyrrolo[3,2-c]pyridin-2-yl)-1H-pyrazolo [4,3-b]pyridin-5-yl)pyridin-3-yl)benzamide] | > 10000 | 302 |  | 3.3
O=C(Nc1cncc(-c2ccc3[nH]nc(-c4cc5c(-c6ccccc6F)nccc5[nH]4)c3n2)c1)C1CC1 [Compound 76, N-(5-(3-(4-(2-Fluorophenyl)-1H-pyrrolo[3,2-c]pyridin-2-yl)-1H-pyrazolo [4,3-b]pyridin-5-yl)pyridin-3-yl)cyclopropanecarboxamide] | 95 | 3520 |  | 
Fc1ccccc1-c1nccc2[nH]c(-c3n[nH]c4ccc(-c5cncc(CNCc6ccccc6)c5)nc34)cc12 [Compound 80, N-Benzyl-1-(5-(3-(4-(2-fluorophenyl)-1H-pyrrolo[3,2-c]pyridin-2-yl)-1H-pyrazolo[4,3-b]pyridin-5-yl)pyridin-3-yl)methanamine] | 9100 | 1670 |  | 
c1cncc(-c2ccc3[nH]nc(-c4cc5c(N6CCCCC6)nccc5[nH]4)c3n2)c1 [Compound 172, 3-(4-(Piperidin-1-yl)-1H-pyrrolo[3,2-c]pyridin-2-yl)-5-(pyridin-3-yl)-1H-pyrazolo[4,3-b]pyridine] | 84 | 89 |  | 
CN(C)Cc1cncc(-c2ccc3[nH]nc(-c4cc5c(N6CCCCC6)nccc5[nH]4)c3n2)c1 [Compound 181, N,N-Dimethyl-1-(5-(3-(4-(piperidin-1l-yl)-1H-pyrrolo[3,2-c]pyridin-2-yl)-1H-pyrazolo[4,3-b]pyridin-5-yl)pyridin-3-yl)methanamine] | 2210 | 1590 |  | 
CCCCC(=O)Nc1cncc(-c2ccc3[nH]nc(-c4cc5c(N6CCCCC6)nccc5[nH]4)c3n2)c1 [Compound 187, N-(5-(3-(4-(Piperidin-1-yl)-1H-pyrrolo[3,2-c]pyridin-2-yl)-1H-pyrazolo[4,3-b]pyridin-5-yl)pyridin-3-yl)pentanamide] | 102 | 2220 |  | 
FC1(F)CCN(Cc2cncc(-c3ccc4[nH]nc(-c5cc6c(N7CCCCC7)nccc6[nH]5)c4n3)c2)C1 [Compound 194, 5-(5-((3,3-Difluoropyrrolidin-1-yl)methyl)pyridin-3-yl)-3-(4-(piperidin-1-yl)-1H-pyrrolo[3,2-c]pyridin-2-yl)-1H-pyrazolo[4,3-b]pyridine] | 186 | 1030 |  | 
c1ccc(-c2ccc3[nH]nc(-c4cc5c(N6CCCCC6)nccc5[nH]4)c3n2)nc1 [Compound 196, 3-(4-(Piperidin-1-yl)-1H-pyrrolo[3,2-c]pyridin-2-yl)-5-(pyridin-2-yl)-1H-pyrazolo[4,3-b]pyridine] | 1800 | 270 |  | 

Continued, in another order:

EC50 (IL-6) [nM] | Compound | EC50 [1] [nM] | inhibition at 10 µM [1] [%] | inhibition at 10 µM (IL-6) [%]
51 | Fc1cccc(-c2nccc3[nH]c(-c4n[nH]c5ccc(-c6cccnc6)nc45)cc23)c1 [Compound 4, 3-(4-(3-Fluorophenyl)-1H-pyrrolo[3,2-c]pyridin-2-yl)-5-(pyridin-3-yl)-1H-pyrazolo[4,3-b]pyridine] | 427 |  | 
104 | CN(C)c1cncc(-c2ccc3[nH]nc(-c4cc5c(-c6cccc(F)c6)nccc5[nH]4)c3n2)c1 [Compound 7, 5-(3-(4-(3-Fluorophenyl)-1H-pyrrolo[3,2-c]pyridin-2-yl)-1H-pyrazolo[4,3-b]pyridin-5-yl)-N,N-dimethylpyridin-3-amine] | > 10000 | 0 | 
9360 | Fc1cccc(-c2nccc3[nH]c(-c4n[nH]c5ccc(-c6cncc(CN7CCCCC7)c6)nc45)cc23)c1 [Compound 15, 3-(4-(3-Fluorophenyl)-1H-pyrrolo[3,2-c]pyridin-2-yl)-5-(5-(piperidin-1-ylmethyl)pyridin-3-yl)-1H-pyrazolo[4,3-b]pyridine] | 554 |  | 
> 10000 | Cc1ccncc1-c1ccc2[nH]nc(-c3cc4c(-c5ccc(F)cc5)nccc4[nH]3)c2n1 [Compound 33, 3-(4-(4-Fluorophenyl)-1H-pyrrolo[3,2-c]pyridin-2-yl)-5-(4-methylpyridin-3-yl)-1H-pyrazolo[4,3-b]pyridine] | 3300 |  | 31.3
121 | Fc1ccc(-c2nccc3[nH]c(-c4n[nH]c5ccc(-c6cncc(CN7CCC(F)(F)C7)c6)nc45)cc23)cc1 [Compound 54, 5-(5-((3,3-Difluoropyrrolidin-1-yl)methyl)pyridin-3-yl)-3-(4-(4-fluorophenyl)-1H-pyrrolo[3,2-c]pyridin-2-yl)-1H-pyrazolo[4,3-b]pyridine] | 521 |  | 
74 | CC(C)CC(=O)Nc1cncc(-c2ccc3[nH]nc(-c4cc5c(-c6ccccc6F)nccc5[nH]4)c3n2)c1 [Compound 58, N-(5-(3-(4-(2-Fluorophenyl)-1H-pyrrolo[3,2-c]pyridin-2-yl)-1H-pyrazolo [4,3-b]pyridin-5-yl)pyridin-3-yl)-3-methylbutanamide] | 370 |  | 
1150 | CN(C)Cc1cncc(-c2ccc3[nH]nc(-c4cc5c(-c6ccccc6F)nccc5[nH]4)c3n2)c1 [Compound 69, 1-(5-(3-(4-(2-Fluorophenyl)-1H-pyrrolo[3,2-c]pyridin-2-yl)-1H-pyrazolo [4,3-b]pyridin-5-yl)pyridin-3-yl)-N,N-dimethylmethanamine] | 626 |  | 
61 | Fc1ccccc1-c1nccc2[nH]c(-c3n[nH]c4ccc(-c5cncnc5)nc34)cc12 [Compound 83, 3-(4-(2-Fluorophenyl)-1H-pyrrolo[3,2-c]pyridin-2-yl)-5-(pyrimidin-5-yl)-1H-pyrazolo[4,3-b]pyridine] | > 10000 | 0 | 
421 | Nc1cncc(-c2ccc3[nH]nc(-c4cc5c(-c6ccncc6)nccc5[nH]4)c3n2)c1 [Compound 115, 5-(3-(4-(Pyridin-4-yl)-1H-pyrrolo[3,2-c]pyridin-2-yl)-1H-pyrazolo[4,3-b]pyridin-5-yl)pyridin-3-amine] | 436 |  | 
